Experimental data from patent US8796302B2 (priority 2004, dated 2014).

Columns and labels:
superoxide = assay: Superoxide release (SOD-inhibitable cytochrome c reduction) after LPS; format: cell-based, rat
Procedure: The release of superoxide was determined by measuring the superoxide dismutase (SOD)-inhibitable reduction of cytochrome c. To measure the immediate release of superoxide from microglia-enriched or neuron-glia after stimulation, cultures grown in 96-well plates were switched to phenol red-free HBSS (50 μl/well). To each well was added 50 μl of HBSS containing vehicle or DM. The cultures were then incubated at about 37° C. for about 30 min followed by 50 μl of ferricytochrome c (100 μM) in HBSS, with and without 600 U/ml SOD, 50 μl of vehicle or LPS in HBSS. The absorbance at 550 nm was read with a SpectraMax Plus microplate spectrophotometer (Molecular Devices, Sunnyvale, Calif.).
This example tests whether or not post-treatment with DM is still neuroprotective in LPS-induced neurotoxicity. Neuron-glia co-cultures as prepared in Example 1 were first treated with LPS (20 ng/ml) for twelve hours, and then LPS was removed by removing the media from the cultures and washing twice with PBS. Different concentrations of DM (10^−5, 10^−10, and 10^−14 M) were then added to the cultures and incubation was continued for another 6 or 7 days. The DA uptake and the superoxide production were measured as in Example 1 and 5. Results are expressed as a percentage of the control cultures and are the mean±S.E.M of three to six experiments with triplicates in each experiment. ##, P<0.01 compared with control culture; *, P<0.05 compared with the LPS-treated culture.
Primary enriched-microglia cultures were prepared as in Example 1. […] The intracellular ROS concentrations and superoxide amounts were measured as in Example 5. The data are expressed as the percent of the control cultures and are the mean±SEM of three experiments performed in triplicate. *P<0.05, **P<0.01, compared to control.

[1] = tested on: GalN/LPS-induced liver gene expression; assay: Liver gene expression (real-time RT-PCR) after GalN/LPS; format: in vivo, mouse
Excerpt: Total RNA was extracted from liver tissues (n=4 to 5) by Trizol reagent (Sigma, St. Louis, Mo.) and purified with an RNeasy column (Qiagen, Valencia, Calif.). Expression of the selected genes was quantified using real-time RT-PCR analysis that began by reverse transcribing the samples with MuLV reverse transcriptase and oligo-dT primers.
The SYBR green DNA PCR kit (Applied Biosystems, Foster City, Calif.) was used for real-time PCR analysis. The relative differences in expression between groups were expressed using cycle time (Ct) values and the relative differences between groups were expressed as relative increases setting control as 100%. Assuming that the Ct value is reflective of the initial starting copy and that there is 100% efficacy, a difference of one cycle is equivalent to a two-fold difference in starting copy.

TNFα = TNFα production in neuron-glia cultures of PHOX+/+ and PHOX−/− mice; format: cell-based, mouse; settings: DM 10^−14 M
Procedure: Neurotoxicity was assessed by DA uptake as described in Example 1. TNFα production was measured by ELISA and iROS was determined by DCFDA as in Example 5. Results are expressed as a percentage of the control culture in FIG. 7A, pg/ml in FIG. 7B, and difference from control in FIG. 7C, respectively, and are the mean±S.E.M. of five individual experiments with triplicates in each experiment. *, P<0.05 compared with LPS culture.
The rat and mouse ventral mesencephalic neuron-glia cultures were prepared as in Example 1. […] DA neurotoxicity was measured by using the [^3H] DA uptake assay as in Example 1. The data are expressed as the percent of the control cultures and are the mean±SEM. The release of TNFα was measured with a commercially available enzyme-linked immunosorbent assay kit. *P<0.05, **P<0.01, compared to control. The amount of TNFα was measured as in Example 2.

COX2 = assay: Western blot of COX2 in microglia enriched cultures; format: cell-based, rat; settings: femto-molar DM, 30 min pretreatment, LPS
Procedure: Western blots were used to analyze possible effects of DM on iNOS and COX2 production in rat microglia enriched cultures. The cultures were prepared and treated with vehicle, OM DM, 10^−14DM, LPS alone, and LPS with different concentrations of DM. The production of iNOS (inducible nitric oxide synthenase) and COX2 (cycloxyase 2) in the culture extracts were detected by Western Blot assay. Data in FIG. 9B represent the mean±S.E.

[2] = ratio to control, 12 hr, DM 12.5 mg/kg sc x2

COc1ccc2c(c1)[C@@]13CCCC[C@H]1[C@@H](C2)N(C)CC3 [DM, d-3-methoxy-N-methylmorphinan]
LPS-induced increase in the release of superoxide (superoxide; DM 10^−5 M and 10^−14 M pretreatment): significantly decreased
LPS-induced increase in superoxide production, post-treatment (superoxide; DM 10^−5 and 10^−14 M post-treatment, 24 h after LPS): significantly inhibited LPS-induced increase in superoxide production
LPS-induced increase in the release of superoxide (superoxide; DM 10^−10 M pretreatment): no significant reduction
production of superoxide (superoxide; DM 10^−10 M, pre- or post-treatment): neither pre-treatment nor post-treatment with DM at 10^−10 M significantly affected the production of superoxide
MIP-2 expression, LPS + DM ([1]; 12 hr after GalN/LPS, DM 12.5 mg/kg sc x2, controls 1.0, LPS/GalN alone 153.3 ± 6.4): 39.0 ± 2.1 fold
GADD153 expression, LPS + DM ([1]; 12 hr, DM 12.5 mg/kg sc x2, controls 1.0, LPS/GalN alone 7.4 ± 0.3): 2.7 ± 1.3 fold
ICAM-1 expression, LPS + DM ([1]; 12 hr, DM 12.5 mg/kg sc x2, controls 1.0, LPS/GalN alone 8.45 ± 1.3): 5.05 ± 2.7 fold
mKC expression, LPS + DM ([1]; 12 hr, DM 12.5 mg/kg sc x2, controls 1.0, LPS/GalN alone 13.7 ± 2.9): 5.8 ± 1.6 fold
GADD45 expression, LPS + DM ([1]; 12 hr, DM 12.5 mg/kg sc x2, controls 1.0, LPS/GalN alone 24.6 ± 12.4): 5.3 ± 2.4 fold
IL-10 expression, LPS + DM ([1]; 12 hr, DM 12.5 mg/kg sc x2, controls 1.0, LPS/GalN alone 25.3 ± 2.9): 15.0 ± 3.3 fold
c-jun/AP-1 expression, LPS + DM ([1]; 12 hr, DM 12.5 mg/kg sc x2, controls 1.0, LPS/GalN alone 28.0 ± 7.5): 9.1 ± 0.8 fold
c-myc expression, LPS + DM ([1]; 12 hr, DM 12.5 mg/kg sc x2, controls 1.0, LPS/GalN alone 45.4 ± 3.6): 18.4 ± 2.1 fold
Thrombospondin-1 expression, LPS + DM ([1]; 12 hr, DM 12.5 mg/kg sc x2, controls 1.0, LPS/GalN alone 94.2 ± 2.5): 56.0 ± 1.57 fold
IL-6 expression, LPS + DM ([1]; 12 hr, DM 12.5 mg/kg sc x2, controls 1.0, LPS/GalN alone 153.4 ± 13.3): 43.6 ± 6.3 fold
GADD45, LPS + DM/Cont [1, 2]: 5.3 fold
GADD153, LPS + DM/Cont [1, 2]: 2.7 fold
ICAM-1, LPS + DM/Cont [1, 2]: 5.05 fold
IL-6, LPS + DM/Cont [1, 2]: 43.6 fold
IL-10, LPS + DM/Cont [1, 2]: 15 fold
MIP-2, LPS + DM/Cont [1, 2]: 39.0 fold
Thrombospondin-1, LPS + DM/Cont [1, 2]: 56.0 fold
c-jun/AP-1, LPS + DM/Cont [1, 2]: 9.1 fold
c-myc, LPS + DM/Cont [1, 2]: 18.4 fold
mKC, LPS + DM/Cont [1, 2]: 5.8 fold
LPS-induced TNFα production (TNFα; PHOX+/+ mice): significantly reduce TNFα production
LPS-induced TNFα production (TNFα; PHOX−/− mice): not seen
protein content of COX2 (COX2): failing to affect the protein content
